These results are taken from patent publication US9242987B2, “Heterocyclyl pyrazolopyrimidine analogues as JAK inhibitors” (Cellzome Limited, priority 2009, dated 2016).

SMILES strings stand for the structures. Structures can show the parent of a compound that is named as a salt.

In assay [1] the target is T1, JAK2 (Homo sapiens, UniProt O60674).
T1 construct: endogenous in cells; host or cells: Mixed Molt4/Ramos lysate (1:2)
The assay can be described thus: Kinobeads assay, JAK2. The note with it: mixed Molt4/Ramos cell lysate, dot blot detection. It counts as binding. In a few lines: (§1)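 Competition pulldown: compound dilution series incubated 3 h in cold room with immobilized aminopyrido-pyrimidine beads and mixed Molt4/Ramos lysate (1:2, 10 mg/mL protein) in DP buffer pH 7.4 with NP40. Bead-bound JAK2/JAK3 eluted, quantified by antibody dot blot with infrared detection; IC50 from dose-response curves.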

In assay [2] the target is T2, JAK3 (Homo sapiens, UniProt P52333).
T2 construct: endogenous in cells; host or cells: Mixed Molt4/Ramos lysate (1:2)
T2 sequence (P52333 1-1124): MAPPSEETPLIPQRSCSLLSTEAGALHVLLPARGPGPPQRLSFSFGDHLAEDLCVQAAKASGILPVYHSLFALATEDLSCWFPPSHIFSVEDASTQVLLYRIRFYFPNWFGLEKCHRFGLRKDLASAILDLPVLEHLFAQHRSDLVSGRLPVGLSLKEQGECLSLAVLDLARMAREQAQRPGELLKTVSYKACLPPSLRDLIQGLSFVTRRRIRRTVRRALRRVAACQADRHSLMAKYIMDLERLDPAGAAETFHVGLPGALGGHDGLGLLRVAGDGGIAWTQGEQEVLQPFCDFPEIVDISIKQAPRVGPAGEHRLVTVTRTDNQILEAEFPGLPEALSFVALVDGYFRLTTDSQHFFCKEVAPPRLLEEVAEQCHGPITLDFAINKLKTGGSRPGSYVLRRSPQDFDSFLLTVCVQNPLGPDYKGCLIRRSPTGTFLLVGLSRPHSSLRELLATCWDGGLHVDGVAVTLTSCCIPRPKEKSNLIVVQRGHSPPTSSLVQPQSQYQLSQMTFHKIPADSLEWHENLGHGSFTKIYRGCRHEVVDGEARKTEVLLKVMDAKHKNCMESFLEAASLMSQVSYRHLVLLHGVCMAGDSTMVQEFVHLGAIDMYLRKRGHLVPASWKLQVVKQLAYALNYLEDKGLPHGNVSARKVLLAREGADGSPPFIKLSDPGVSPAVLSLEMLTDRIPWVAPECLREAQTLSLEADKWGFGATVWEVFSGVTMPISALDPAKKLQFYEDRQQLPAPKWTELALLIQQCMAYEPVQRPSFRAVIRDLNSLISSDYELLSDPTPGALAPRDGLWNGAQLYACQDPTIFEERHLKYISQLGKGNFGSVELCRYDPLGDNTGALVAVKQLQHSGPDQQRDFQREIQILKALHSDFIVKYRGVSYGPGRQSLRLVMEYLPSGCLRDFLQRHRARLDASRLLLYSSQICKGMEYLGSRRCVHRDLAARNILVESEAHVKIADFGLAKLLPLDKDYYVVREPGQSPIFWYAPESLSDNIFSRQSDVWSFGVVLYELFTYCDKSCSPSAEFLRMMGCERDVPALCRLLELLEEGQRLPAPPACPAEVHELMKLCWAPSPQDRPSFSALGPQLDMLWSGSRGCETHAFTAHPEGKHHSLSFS
The assay can be described thus: Kinobeads assay, JAK3. The following applies: mixed Molt4/Ramos cell lysate, dot blot detection. It counts as binding. The method, boiled down: as §1

T1 sequence (O60674 whole entry): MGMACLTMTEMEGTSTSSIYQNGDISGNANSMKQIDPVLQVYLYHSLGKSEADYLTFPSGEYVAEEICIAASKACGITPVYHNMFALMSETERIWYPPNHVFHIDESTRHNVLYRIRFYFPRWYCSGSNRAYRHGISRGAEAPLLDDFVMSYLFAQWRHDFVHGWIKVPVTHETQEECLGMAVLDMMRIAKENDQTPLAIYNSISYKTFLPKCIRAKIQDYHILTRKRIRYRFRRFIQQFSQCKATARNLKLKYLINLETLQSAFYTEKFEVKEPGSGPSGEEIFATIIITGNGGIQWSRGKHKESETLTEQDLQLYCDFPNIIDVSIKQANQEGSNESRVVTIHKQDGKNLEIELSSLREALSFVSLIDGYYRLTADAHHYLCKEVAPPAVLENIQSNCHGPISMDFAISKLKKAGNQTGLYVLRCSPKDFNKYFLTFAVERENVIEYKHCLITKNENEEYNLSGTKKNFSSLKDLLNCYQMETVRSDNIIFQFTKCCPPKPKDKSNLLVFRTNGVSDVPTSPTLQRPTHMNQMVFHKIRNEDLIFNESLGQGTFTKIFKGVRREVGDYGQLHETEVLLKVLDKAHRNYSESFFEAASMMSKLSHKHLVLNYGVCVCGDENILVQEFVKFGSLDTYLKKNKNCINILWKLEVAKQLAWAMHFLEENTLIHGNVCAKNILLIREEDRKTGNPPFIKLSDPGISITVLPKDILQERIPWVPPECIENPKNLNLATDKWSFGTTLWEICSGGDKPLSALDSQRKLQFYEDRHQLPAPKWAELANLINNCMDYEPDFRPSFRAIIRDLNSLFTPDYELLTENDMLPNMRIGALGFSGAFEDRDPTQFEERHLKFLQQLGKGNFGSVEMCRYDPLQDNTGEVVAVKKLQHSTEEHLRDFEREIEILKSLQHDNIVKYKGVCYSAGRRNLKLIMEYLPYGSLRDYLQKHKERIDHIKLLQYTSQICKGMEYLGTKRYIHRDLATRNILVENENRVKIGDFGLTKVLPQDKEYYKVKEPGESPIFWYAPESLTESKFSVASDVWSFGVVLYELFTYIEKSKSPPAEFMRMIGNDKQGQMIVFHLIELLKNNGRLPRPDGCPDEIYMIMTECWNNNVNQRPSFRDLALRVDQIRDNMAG

Consider `Cc1c(F)cccc1Cn1ncc2cnc(Nc3cnn(C)c3)nc21` [Example 115, 1-(3-Fluoro-2-methylbenzyl)-N-(1-methyl-1H-pyrazol-4-yl)-1H-pyrazolo[3,4-d]pyrimidin-6-amine], for which the IC50 in assay [1] is 1000 to 10000 nM; in assay [2] it was below 100 nM.

`Cc1ccc(F)cc1Cn1ncc2cnc(Nc3cnn(C)c3)nc21` [Example 116]: the IC50 is 100 to 1000 nM in assay [1] and below 100 nM in assay [2].

With `Cc1cccc(F)c1Cn1ncc2cnc(Nc3cnn(C)c3)nc21` [Example 117, 1-(2-Fluoro-6-methylbenzyl)-N-(1-methyl-1H-pyrazol-4-yl)-1H-pyrazolo[3,4-d]pyrimidin-6-amine], the IC50 in assay [1] was 1000 to 10000 nM; in assay [2], below 100 nM.

On to `FC(F)Cn1cc(Nc2ncc3cnn(Cc4ccccc4)c3n2)cn1` [Example 118, 1-Benzyl-N-(1-(2,2-difluoroethyl)-1H-pyrazol-4-yl)-1H-pyrazolo[3,4-d]pyrimidin-6-amine], for which the IC50 in assay [1] was 1000 to 10000 nM; in assay [2] it was below 100 nM.

On to `COc1nn(CC(F)F)cc1Nc1ncc2cnn(Cc3ccccc3)c2n1` [Example 119, 1-Benzyl-N-(1-(2,2-difluoroethyl)-3-methoxy-1H-pyrazol-4-yl)-1H-pyrazolo[3,4-d]pyrimidin-6-amine], for which the figures for the IC50 in assay [1] and in assay [2] were at least 10000 nM and 100 to 1000 nM, respectively.

Take `Cc1nn(CC(F)F)cc1Nc1ncc2cnn(Cc3ccccc3)c2n1` [Example 120, 1-Benzyl-N-(1-(2,2-difluoroethyl)-3-methyl-1H-pyrazol-4-yl)-1H-pyrazolo[3,4-d]pyrimidin-6-amine]: the IC50 is at least 10000 nM in assay [1] and 100 to 1000 nM in assay [2].

For the compound `NS(=O)(=O)c1ccc(-n2ncc3cnc(Nc4cnn(CCO)c4)nc32)cc1` [Example 121, 4-(6-((1-(2-Hydroxyethyl)-1H-pyrazol-4-yl)amino)-1H-pyrazolo[3,4-d]pyrimidin-1-yl)benzenesulfonamide], the values for the IC50 in assay [1] and in assay [2] were 100 to 1000 nM and below 100 nM, respectively.

In the case of `Cn1cc(Nc2ncc3cnn(-c4cccc(S(N)(=O)=O)c4)c3n2)cn1` [Example 122, 3-(6-((1-Methyl-1H-pyrazol-4-yl)amino)-1H-pyrazolo[3,4-d]pyrimidin-1-yl)benzenesulfonamide], the IC50 in assay [1] fell in the range of 1000 to 10000 nM; in assay [2], 100 to 1000 nM.

Regarding `CCN(CC)CCn1cc(Nc2ncc3cnn(Cc4ccccc4F)c3n2)cn1` [Example 123, N-(1-(2-(Diethylamino)ethyl)-1H-pyrazol-4-yl)-1-(2-fluorobenzyl)-1H-pyrazolo[3,4-d]pyrimidin-6-amine], the IC50 in assay [1] was 100 to 1000 nM; in assay [2], below 100 nM.

As to `Fc1ccccc1Cn1ncc2cnc(Nc3cnn(CCN4CCOCC4)c3)nc21` [Example 124, 1-(2-Fluorobenzyl)-N-(1-(2-morpholinoethyl)-1H-pyrazol-4-yl)-1H-pyrazolo[3,4-d]pyrimidin-6-amine], the figures for the IC50 in assay [1] and in assay [2] were 100 to 1000 nM and below 100 nM, respectively.

As for `CN(C)CCCn1cc(Nc2ncc3cnn(Cc4ccccc4F)c3n2)cn1` [Example 125, N-(1-(3-(Dimethylamino)propyl)-1H-pyrazol-4-yl)-1-(2-fluorobenzyl)-1H-pyrazolo[3,4-d]pyrimidin-6-amine], the IC50 in assay [1] was 100 to 1000 nM; in assay [2], below 100 nM.

As for `CC(C)S(=O)(=O)Nc1ccccc1Cn1ncc2cnc(Nc3cnn(C)c3)nc21` [Example 126, N-(2-((6-((1-Methyl-1H-pyrazol-4-yl)amino)-1H-pyrazolo[3,4-d]pyrimidin-1-yl)methyl)phenyl)propane-2-sulfonamide], the figures for the IC50 in assay [1] and in assay [2] were 1000 to 10000 nM and below 100 nM, respectively.

For the compound `NS(=O)(=O)c1ccc(-n2ncc3cnc(Nc4cnn(CC(F)F)c4)nc32)cc1` [Example 127, 4-(6-((1-(2,2-Difluoroethyl)-1H-pyrazol-4-yl)amino)-1H-pyrazolo[3,4-d]pyrimidin-1-yl)benzenesulfonamide], the IC50 in assay [1] is 1000 to 10000 nM; in assay [2] it was 100 to 1000 nM.

As to `Fc1ccccc1Cn1ncc2cnc(Nc3cnn(CC(F)F)c3)nc21` [Example 128, N-(1-(2,2-Difluoroethyl)-1H-pyrazol-4-yl)-1-(2-fluorobenzyl)-1H-pyrazolo[3,4-d]pyrimidin-6-amine], the IC50 in assay [1] is 1000 to 10000 nM; in assay [2], below 100 nM.

Turning to `Fc1ccc(F)c(Cn2ncc3cnc(Nc4cnn(CC(F)F)c4)nc32)c1` [Example 129, 1-(2,5-Difluorobenzyl)-N-(1-(2,2-difluoroethyl)-1H-pyrazol-4-yl)-1H-pyrazolo[3,4-d]pyrimidin-6-amine], the IC50 in assay [1] is 100 to 1000 nM; in assay [2], below 100 nM.

As to `N#Cc1ccc(F)cc1Cn1ncc2cnc(Nc3cnn(CC(F)F)c3)nc21` [Example 130, 2-((6-((1-(2,2-Difluoroethyl)-1H-pyrazol-4-yl)amino)-1H-pyrazolo[3,4-d]pyrimidin-1-yl)methyl)-4-fluorobenzonitrile], the results for the IC50 in assay [1] and in assay [2] were 100 to 1000 nM and below 100 nM, respectively.

On to `CS(=O)(=O)Nc1ccccc1Cn1ncc2cnc(Nc3cnn(CC(F)F)c3)nc21` [Example 131, N-(2-((6-((1-(2,2-Difluoroethyl)-1H-pyrazol-4-yl)amino)-1H-pyrazolo[3,4-d]pyrimidin-1-yl)methyl)phenyl)methanesulfonamide hydrochloride], for which the IC50 in assay [1] is 100 to 1000 nM; in assay [2] it was below 100 nM.

Turning to `COCCOc1cccc(Cn2ncc3cnc(Nc4cnn(C)c4)nc32)c1` [Example 132, 1-(3-(2-Methoxyethoxy)benzyl)-N-(1-methyl-1H-pyrazol-4-yl)-1H-pyrazolo[3,4-d]pyrimidin-6-amine], the figures for the IC50 in assay [1] and in assay [2] were at least 10000 nM and below 100 nM, respectively.

For `CNC(=O)Cn1cc(Nc2ncc3cnn(Cc4ccccc4)c3n2)cn1` [Example 133, 2-(4-((1-Benzyl-1H-pyrazolo[3,4-d]pyrimidin-6-yl)amino)-1H-pyrazol-1-yl)-N-methylacetamide], the IC50 in assay [1] was 1000 to 10000 nM; in assay [2], below 100 nM.

In the case of `Cn1cc(Nc2ncc3cnn(Cc4ccccc4NS(=O)(=O)CC(F)(F)F)c3n2)cn1` [Example 134], the IC50 is 1000 to 10000 nM in assay [1] and below 100 nM in assay [2].

Regarding `Cn1cc(Nc2ncc3cnn(-c4ccc(C(N)=O)cc4)c3n2)cn1` [Example 135, 4-(6-((1-Methyl-1H-pyrazol-4-yl)amino)-1H-pyrazolo[3,4-d]pyrimidin-1-yl)benzamide], the results for the IC50 in assay [1] and in assay [2] were 1000 to 10000 nM and 100 to 1000 nM, respectively.

`CNC(=O)c1ccc(-n2ncc3cnc(Nc4cnn(C)c4)nc32)cc1` [Example 136, N-methyl-4-(6-((1-methyl-1H-pyrazol-4-yl)amino)-1H-pyrazolo[3,4-d]pyrimidin-1-yl)benzamide]: the values for the IC50 in assay [1] and in assay [2] were 1000 to 10000 nM and 100 to 1000 nM, respectively.

For the compound `Cn1cc(Nc2ncc3cnn(-c4ccc(C(=O)N5CCOCC5)cc4)c3n2)cn1` [Example 137, (4-(6-((1-Methyl-1H-pyrazol-4-yl)amino)-1H-pyrazolo[3,4-d]pyrimidin-1-yl)phenyl)(morpholino)methanone], the values for the IC50 in assay [1] and in assay [2] were 100 to 1000 nM and below 100 nM, respectively.

As to `Cn1cc(Nc2ncc3cnn(-c4ccc(S(N)(=O)=O)c(F)c4)c3n2)cn1` [Example 138, 2-Fluoro-4-(6-((1-methyl-1H-pyrazol-4-yl)amino)-1H-pyrazolo[3,4-d]pyrimidin-1-yl)benzenesulfonamide], the results for the IC50 in assay [1] and in assay [2] were 1000 to 10000 nM and 100 to 1000 nM, respectively.

With `Cn1cc(Nc2ncc3cnn(-c4ccc(S(=O)(=O)NCCO)cc4)c3n2)cn1` [Example 139, N-(2-Hydroxyethyl)-4-(6-((1-methyl-1H-pyrazol-4-yl)amino)-1H-pyrazolo[3,4-d]pyrimidin-1-yl)benzenesulfonamide], the IC50 in assay [1] was in the range of 1000 to 10000 nM; in assay [2], 100 to 1000 nM.

Take `Cn1cc(Nc2ncc3cnn(Cc4cccc(NS(C)(=O)=O)c4)c3n2)cn1` [Example 140, N-(3-((6-((1-Methyl-1H-pyrazol-4-yl)amino)-1H-pyrazolo[3,4-d]pyrimidin-1-yl)methyl)phenyl)methanesulfonamide]: the IC50 in assay [1] is 1000 to 10000 nM; in assay [2] it was below 100 nM.

A word on the IC50: it is the point on the concentration scale where inhibition reaches its midpoint.
